Ends that are not written are not given here.

The text below walks through data of patent US5656590A, “Treatment of anorexia and related states” (Amylin Pharmaceuticals, Inc., priority 1993, dated 1997).

The nature of series [1]: amylin agonist activity in vivo: ability to induce hyperlactemia and/or hyperglycemia in mammals. The settings on record: treated test animals. The text has this:
Analogues of amylin can be assayed for activity in the soleus muscle assay described above. Amylin agonist activity of compounds may also be assessed by the ability to induce hyperlactemia and/or hyperglycemia in mammals. […] These preferred compounds include ^25 Pro^26 Val^28,29 Pro-h-amylin, ^25,28,29 Pro-h-amylin, and ^18 Arg^25,28 Pro-h-amylin.

The nature of series [2]: solubility and stability characteristics compared to human amylin. The class given is physicochemical.
The subject of the next series is liver glucose output. The settings on record: rats; cited from earlier work.
A short description of series [3]: toxicological studies with amylin, two weeks of administration (rats). The class given is in vivo. The text has this: (§1) While this proposal is counter to reports that amylin can suppress appetite (which is clearly an undesirable feature for treatment of anorexia or cachectic states), applicant believes that the appetite suppressant effects of amylin is seen only at very high doses and may be short lived. Indeed, applicant has discovered that in toxicological studies with amylin in both rats and dogs, where two weeks of amylin administration were used, there was no reduction in food intake or weight in the animal.

A short description of series [4]: toxicological studies with amylin, two weeks of administration (dogs). Format: in vivo.
Text: as §1

The nature of series [5]: administration of amylin to anesthetized rats: blood lactate and blood glucose. Format: in vivo. The text has this: The term "amylin" is used in this application to include compounds defined by Young et al., U.S. application Ser. No. 07/640,478, filed Jan. 10, 1991, now U.S. Pat. No. 5,234,906, entitled "Hyperglycemic Compositions", which (including drawings) is hereby incorporated by reference. For example, it includes the peptide hormone, and species variations of it, referred to as amylin which is synthesized and secreted from the beta cells of the pancreas. Thus, it includes human amylin, cat amylin, dog amylin; rat amylin, mouse amylin, hamster amylin, and guinea pig amylin. Preferably the amylin has an EC50 of less than 1 nM in the rat soleus muscle assay as described in, for example, European Patent Application 88307927.9. Amylin functions along with insulin, which is stored and released from the same pancreatic beta cells, to regulate fuel metabolism. Amylin acts through receptors located in skeletal muscle to increase glycogen turnover in this tissue, believed to result in an increased return to the bloodstream of lactate, which is a major precursor of hepatic gluconeogenesis. Amylin cosecretion with insulin after meals therefore results in restoration of hepatic glycogen content and limits the potential which would otherwise exist for insulin to induce hypoglycemia. […]

On to ^18 Arg^25,28 Pro-h-amylin, for which, in series [1], the “amylin activity in vivo (hyperlactemia, hyperglycemia)” value (“amylin activity in vivo” for short) is listed as “marked hyperlactemia followed by hyperglycemia”. Moreover, in series [2], the solubility characteristics entry is recorded as “more desireable” and the stability characteristics result is on record as “more desireable”.
“amylin (KCNTATCATQRLANFLVHSSNNFGAILSSTNVGSNTY; Islet amyloid polypeptide; UniProt P10997 34-70, looked up) [peptide hormone, and species variations of it, synthesized and secreted from the beta cells of the pancreas]”: in the series with liver glucose output, the “effect on insulin-mediated suppression of liver glucose output” value was “reverses insulin-mediated suppression of liver glucose output”. In addition, in series [3], the “reduction in food intake” value is on record as “no reduction” and the reduction in weight entry is recorded as “no reduction”. Besides, in series [4], the “reduction in food intake” value was “no reduction” and the reduction in weight entry is on record as “no reduction”. Also, the blood lactate levels entry in series [5] is “large increases in blood lactate levels”. In addition, in series [5] (following the lactate increase), the blood glucose levels result is given as “increased blood glucose levels”.
As for “^28 Pro-h-amylin (KCNTATCATQRLANFLVHSSNNFGAILPSTNVGSNTY; ends and bridges not checked; cysteine pairing not given here; UniProt P10997 34-70, looked up, variant S28P) [agonist analogue of human amylin]”, the “amylin activity in vivo” value in series [1] is recorded as “marked hyperlactemia followed by hyperglycemia”.
Still for that read-out and setting: the result for “des-^1 Lys-h-amylin (CNTATCATQRLANFLVHSSNNFGAILSSTNVGSNTY; ends and bridges not checked; cysteine pairing not given here; UniProt P10997 34-70, looked up, variant K1*) [agonist analogue of human amylin]” reads “marked hyperlactemia followed by hyperglycemia”.
Regarding “^25,28,29 Pro-h-amylin (KCNTATCATQRLANFLVHSSNNFGPILPPTNVGSNTY; ends and bridges not checked; cysteine pairing not given here; UniProt P10997 34-70, looked up, variant A25P S28P S29P) [agonist analogue of human amylin]”, in series [1], the “amylin activity in vivo” value was “marked hyperlactemia followed by hyperglycemia”. Besides, in series [2], the solubility characteristics entry was “more desireable” and the stability characteristics result is “more desireable”.
Turning to des-^1 Lys^18 Arg^25,28 Pro-h-amylin, the “amylin activity in vivo” value in series [1] is “marked hyperlactemia followed by hyperglycemia”.
Turning to ^25 Pro^26 Val^28,29 Pro-h-amylin, in series [2], the solubility characteristics result is “more desireable” and the stability characteristics result is on record as “more desireable”.
